Experimental findings from patent US5416191A, “Bradykinin antagonists” (Cortech, Inc., priority 1993, dated 1995) are described below.

The experiment deals with T1, bradykinin receptor of the B2 class (rat uterus) (Rattus norvegicus, UniProt P25023).
T1 construct: concentration effect curves to bradykinin (BK) on rat uterus in vitro; from tissue; host or cells: rat uterus
T1 sequence (P25023 1-396): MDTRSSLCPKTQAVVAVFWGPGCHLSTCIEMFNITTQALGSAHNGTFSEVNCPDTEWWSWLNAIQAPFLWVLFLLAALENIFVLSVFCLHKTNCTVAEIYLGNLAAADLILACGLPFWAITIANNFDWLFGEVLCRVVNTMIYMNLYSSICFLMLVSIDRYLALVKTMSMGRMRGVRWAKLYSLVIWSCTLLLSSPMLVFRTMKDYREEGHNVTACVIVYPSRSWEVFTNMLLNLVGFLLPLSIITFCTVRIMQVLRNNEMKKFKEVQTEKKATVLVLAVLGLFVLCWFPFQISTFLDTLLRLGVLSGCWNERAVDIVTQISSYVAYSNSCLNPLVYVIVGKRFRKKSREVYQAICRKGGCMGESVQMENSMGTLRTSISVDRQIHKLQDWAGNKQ
The experiment in a line: Rat uterus (RU) in vitro, antagonism of bradykinin. On the procedure: Thus in vitro studies were performed on standard assay systems, namely, guinea-pig ileum (GPI), rat uterus (RU) and rabbit jugular vein (RJV). […] The PA2 can be defined as the negative logarithm of the molar concentration of the antagonist in the presence of which the potency of the agonist is reduced two-fold, i.e. twice the amount of agonist is required to produce a given response in the presence of, than in the absence of, the antagonist. A high potency of antagonism is indicated by a high PA2 value, i.e., a low concentration of antagonist is effective.
The percentage recovery (% Rec) was also determined for compounds with respect to each assay.
With respect to duration of activity, it is noted that after exposure to the highest concentration of antagonist, each tissue was washed extensively and then assessed for recovery from the antagonist effect.
Potency in the rat uterus assay was assessed as described above and PA2 values determined.

The mark [1] stands for this setting: Table D, effect of linker length, read-out: pA2 (UTERUS) (converted).

Like-named read-outs stand apart in the source and are kept apart here. Peptide text beside a SMILES is read from it.

For `CC(C)C[C@H](NC(=O)[C@@H](Cc1ccccc1)NC(=O)[C@H](CSC1CC(=O)N(CCN2C(=O)CC(SC[C@H](NC(=O)[C@H](Cc3ccccc3)NC(=O)CNC(=O)[C@@H]3C[C@@H](O)CN3C(=O)[C@@H]3CCCN3C(=O)[C@H](CCCNC(=N)N)NC(=O)[C@H](N)CCCNC(=N)N)C(=O)N[C@H](Cc3ccccc3)C(=O)N[C@@H](CC(C)C)C(=O)N[C@@H](CCCNC(=N)N)C(=O)O)C2=O)C1=O)NC(=O)[C@H](Cc1ccccc1)NC(=O)CNC(=O)[C@@H]1C[C@@H](O)CN1C(=O)[C@@H]1CCCN1C(=O)[C@H](CCCNC(=N)N)NC(=O)[C@H](N)CCCNC(=N)N)C(=O)N[C@@H](CCCNC(=N)N)C(=O)O` (some centres unmarked) [CP-0162] (HELM PEPTIDE1{[dR].R.P.[Hyp].G.F.C.[dF].L.R}|PEPTIDE2{[dR].R.P.[Hyp].G.F.C.[dF].L.R}|CHEM1{[O=C1CC([*:1])C(=O)N1CCN1C(=O)CC([*:2])C1=O]}$PEPTIDE1,CHEM1,7:R3-1:R1|PEPTIDE2,CHEM1,7:R3-1:R2$$$V2.0), the “% REC (40 MIN)” value (Table D) is reported as 90%. Further, the Kb under setting [1] is 5.01 nM.

As for `CC(C)C[C@H](NC(=O)[C@@H](Cc1ccccc1)NC(=O)[C@H](CSC1CC(=O)N(CCCCCCCCCCCCN2C(=O)CC(SC[C@H](NC(=O)[C@H](Cc3ccccc3)NC(=O)CNC(=O)[C@@H]3C[C@@H](O)CN3C(=O)[C@@H]3CCCN3C(=O)[C@H](CCCNC(=N)N)NC(=O)[C@H](N)CCCNC(=N)N)C(=O)N[C@H](Cc3ccccc3)C(=O)N[C@@H](CC(C)C)C(=O)N[C@@H](CCCNC(=N)N)C(=O)O)C2=O)C1=O)NC(=O)[C@H](Cc1ccccc1)NC(=O)CNC(=O)[C@@H]1C[C@@H](O)CN1C(=O)[C@@H]1CCCN1C(=O)[C@H](CCCNC(=N)N)NC(=O)[C@H](N)CCCNC(=N)N)C(=O)N[C@@H](CCCNC(=N)N)C(=O)O` (some centres unmarked) [CP-0166] (HELM PEPTIDE1{[dR].R.P.[Hyp].G.F.C.[dF].L.R}|PEPTIDE2{[dR].R.P.[Hyp].G.F.C.[dF].L.R}|CHEM1{[O=C1CC([*:1])C(=O)N1CCCCCCCCCCCCN1C(=O)CC([*:2])C1=O]}$PEPTIDE1,CHEM1,7:R3-1:R1|PEPTIDE2,CHEM1,7:R3-1:R2$$$V2.0), where the note is “Table D”, the “% REC (40 MIN)” value stood at 0%. Further, the Kb under setting [1] was 6.31 nM.

As for `CC(C)C[C@H](NC(=O)[C@@H](Cc1ccccc1)NC(=O)[C@H](CSC1CC(=O)N(CCCN2C(=O)CC(SC[C@H](NC(=O)[C@H](Cc3ccccc3)NC(=O)CNC(=O)[C@@H]3C[C@@H](O)CN3C(=O)[C@@H]3CCCN3C(=O)[C@H](CCCNC(=N)N)NC(=O)[C@H](N)CCCNC(=N)N)C(=O)N[C@H](Cc3ccccc3)C(=O)N[C@@H](CC(C)C)C(=O)N[C@@H](CCCNC(=N)N)C(=O)O)C2=O)C1=O)NC(=O)[C@H](Cc1ccccc1)NC(=O)CNC(=O)[C@@H]1C[C@@H](O)CN1C(=O)[C@@H]1CCCN1C(=O)[C@H](CCCNC(=N)N)NC(=O)[C@H](N)CCCNC(=N)N)C(=O)N[C@@H](CCCNC(=N)N)C(=O)O` (some centres unmarked) [CP-0172] (HELM PEPTIDE1{[dR].R.P.[Hyp].G.F.C.[dF].L.R}|PEPTIDE2{[dR].R.P.[Hyp].G.F.C.[dF].L.R}|CHEM1{[O=C1CC([*:1])C(=O)N1CCCN1C(=O)CC([*:2])C1=O]}$PEPTIDE1,CHEM1,7:R3-1:R1|PEPTIDE2,CHEM1,7:R3-1:R2$$$V2.0), the “% REC (40 MIN)” value (Table D) is given as 90%. The Kb under setting [1] was 2.51 nM.

As for `N=C(N)NCCC[C@@H](N)C(=O)N[C@@H](CCCNC(=N)N)C(=O)N1CCC[C@H]1C(=O)N1C[C@H](O)C[C@H]1C(=O)NCC(=O)N[C@@H](Cc1ccccc1)C(=O)N[C@@H](CO)C(=O)N[C@H](Cc1ccccc1)C(=O)N[C@@H](Cc1ccccc1)C(=O)N[C@@H](CCCNC(=N)N)C(=O)O` [CP-0181, DArg^0 -Arg^1 -Pro^2 -Hyp^3 -Gly^4 -Phe^5 -Ser^6 -DPhe^7 -Phe^8 -Arg^9, reference compound], the “% RECOVERY” value (Table F, rat uterus) is recorded as 100%. For the same molecule, the Kb (Table F, read-out: RAT UTERUS pA2 (converted)) was 100 nM.

Consider `CC(C)C[C@H](NC(=O)[C@@H](Cc1ccccc1)NC(=O)[C@H](CSC1CC(=O)N(CCCCN2C(=O)CC(SC[C@H](NC(=O)[C@H](Cc3ccccc3)NC(=O)CNC(=O)[C@@H]3C[C@@H](O)CN3C(=O)[C@@H]3CCCN3C(=O)[C@H](CCCNC(=N)N)NC(=O)[C@H](N)CCCNC(=N)N)C(=O)N[C@H](Cc3ccccc3)C(=O)N[C@@H](CC(C)C)C(=O)N[C@@H](CCCNC(=N)N)C(=O)O)C2=O)C1=O)NC(=O)[C@H](Cc1ccccc1)NC(=O)CNC(=O)[C@@H]1C[C@@H](O)CN1C(=O)[C@@H]1CCCN1C(=O)[C@H](CCCNC(=N)N)NC(=O)[C@H](N)CCCNC(=N)N)C(=O)N[C@@H](CCCNC(=N)N)C(=O)O` (some centres unmarked) [CP-0209] (HELM PEPTIDE1{[dR].R.P.[Hyp].G.F.C.[dF].L.R}|PEPTIDE2{[dR].R.P.[Hyp].G.F.C.[dF].L.R}|CHEM1{[O=C1CC([*:1])C(=O)N1CCCCN1C(=O)CC([*:2])C1=O]}$PEPTIDE1,CHEM1,7:R3-1:R1|PEPTIDE2,CHEM1,7:R3-1:R2$$$V2.0), for which the “% REC (40 MIN)” value (Table D) is given as 50%. The Kb under setting [1] is 6.31 nM.

In the case of `CC(C)C[C@H](NC(=O)[C@@H](Cc1ccccc1)NC(=O)[C@H](CSC1CC(=O)N(CCCCCCCCN2C(=O)CC(SC[C@H](NC(=O)[C@H](Cc3ccccc3)NC(=O)CNC(=O)[C@@H]3C[C@@H](O)CN3C(=O)[C@@H]3CCCN3C(=O)[C@H](CCCNC(=N)N)NC(=O)[C@H](N)CCCNC(=N)N)C(=O)N[C@H](Cc3ccccc3)C(=O)N[C@@H](CC(C)C)C(=O)N[C@@H](CCCNC(=N)N)C(=O)O)C2=O)C1=O)NC(=O)[C@H](Cc1ccccc1)NC(=O)CNC(=O)[C@@H]1C[C@@H](O)CN1C(=O)[C@@H]1CCCN1C(=O)[C@H](CCCNC(=N)N)NC(=O)[C@H](N)CCCNC(=N)N)C(=O)N[C@@H](CCCNC(=N)N)C(=O)O` (some centres unmarked) [CP-0211] (HELM PEPTIDE1{[dR].R.P.[Hyp].G.F.C.[dF].L.R}|PEPTIDE2{[dR].R.P.[Hyp].G.F.C.[dF].L.R}|CHEM1{[O=C1CC([*:1])C(=O)N1CCCCCCCCN1C(=O)CC([*:2])C1=O]}$PEPTIDE1,CHEM1,7:R3-1:R1|PEPTIDE2,CHEM1,7:R3-1:R2$$$V2.0), the “% REC (40 MIN)” value (Table D) was 25%. Also, the Kb under setting [1] is 3.98 nM.

In the case of `CC(C)C[C@H](NC(=O)[C@@H](Cc1ccccc1)NC(=O)[C@H](CSC1CC(=O)N(CCCCCCCCCN2C(=O)CC(SC[C@H](NC(=O)[C@H](Cc3ccccc3)NC(=O)CNC(=O)[C@@H]3C[C@@H](O)CN3C(=O)[C@@H]3CCCN3C(=O)[C@H](CCCNC(=N)N)NC(=O)[C@H](N)CCCNC(=N)N)C(=O)N[C@H](Cc3ccccc3)C(=O)N[C@@H](CC(C)C)C(=O)N[C@@H](CCCNC(=N)N)C(=O)O)C2=O)C1=O)NC(=O)[C@H](Cc1ccccc1)NC(=O)CNC(=O)[C@@H]1C[C@@H](O)CN1C(=O)[C@@H]1CCCN1C(=O)[C@H](CCCNC(=N)N)NC(=O)[C@H](N)CCCNC(=N)N)C(=O)N[C@@H](CCCNC(=N)N)C(=O)O` (some centres unmarked) [CP-0229] (HELM PEPTIDE1{[dR].R.P.[Hyp].G.F.C.[dF].L.R}|PEPTIDE2{[dR].R.P.[Hyp].G.F.C.[dF].L.R}|CHEM1{[O=C1CC([*:1])C(=O)N1CCCCCCCCCN1C(=O)CC([*:2])C1=O]}$PEPTIDE1,CHEM1,7:R3-1:R1|PEPTIDE2,CHEM1,7:R3-1:R2$$$V2.0), where the note is “Table D”, the “% REC (40 MIN)” value was 0-10%. For the same molecule, under setting [1], the Kb is 1 nM.
